Results taken from US20230105693A1, “ANTIMICROBIAL COMPOSITIONS” (Firmenich SA, priority 2020, published 2023).
Read-outs that look alike come from different tables or passages of the source.

What was measured:
[1] = system: Escherichia coli ATCC 10536; experiment: Robotic BCT test of perfume ingredients in model surfactant bases; type: cell-based; details: for log reduction at 0.5 %: Escherichia coli, ATCC10536, 45 s, read-out: Log reduction in Base 1 (Log CFU/mL)
Procedure: The surfactant bases tested included 1) sodium lauryl ether sulfate (SLES) and cocamidopropyl betaine (CAPB) at 3:1 mass ratios; 2) SLES, CAPB and coco-glucoside at 2:1:1 mass ratios. Test samples were prepared by mixing perfume ingredients with the surfactant bases and vigorously stirred for 24 hrs. Concentration of perfume ingredients in the bases was 0.5% wt. Samples with transparent appearance were selected for antimicrobial testing.
Antimicrobial efficacy was tested against a representative Gram-negative bacterial strain, Escherichia coli ATCC 10536, using robotic bacteria contact time (BCT) test based on European standard EN-1276 and EP2787827(B1).
Preparation of screening plate and dilution plate: Aliquots (270 µl) of compositions were dispensed into the wells of a 96-well microtiter plate (MTP) along two columns (B1-H1, and B7-H7), and 270 µl of MilliQ water was added to well A1 and A7 as the control samples. This MTP was labelled as the “Screening plate”. In another MTP, labelled as the “Dilution plate”, 270 µL of Dey-Engley (D/E) neutralizing solution was added to column 1 and column 7. 270 µl of tryptone diluent solution was added to columns 2-6 and columns 8-12 of the Dilution MTP by a Hamilton robotic liquid handling station.
BCT test & neutralization & dilution: Bacterial stock (30 µl) was then added to columns 1 of the ‘Screening plate’ and mixed by a Hamilton robotic liquid handling station. After a contact time of 45 seconds, 30 µl of the mixtures in column 1 were transferred into the corresponding wells of column 1 of the ‘Dilution plate’. After neutralizing for 5 minutes in the D/E neutralizing solution, 30 µl of the neutralized mixtures were transferred from column 1 to column 2 of the Dilution MTP and mixed, followed by transferring 30 µl of the mixtures from column 2 into column 3. This process was repeated serially diluting the bacteria suspensions across the plate to column 6. Bacterial stock (30 µl) was then added to columns 7 of the ‘Screening plate’ and mixed by a Hamilton robotic liquid handling station. After a contact time of 45 seconds, 30 µl of the mixtures in column 7 were transferred into the corresponding wells of column 7 of the ‘Dilution plate’. After neutralizing for 5 minutes in the D/E neutralizing solution, 30 µl of the mixtures were transferred from column 7 to column 8 of the Dilution MTP and mixed, followed by transferring further 30 µl mixtures from column 8 into column 9. This process was repeated serially diluting the bacteria suspensions across the plate to column 12.
Plating: 30 µl volumes from each well in the Dilution MTP were transferred onto four Tryptone Soya Agar (TSA) plates. The TSA plates were allowed to stand for about two hours so that the 30 µl inocula spots could dry and the plates were then inverted and incubated overnight at 37° C. for 24 hours. After incubation, colonies were counted.
Calculating log reduction: Select the dilutions with colony counts, and calculate the viable cell counts (CFU/mL) of mixture in ‘Screening plate’, and log reduction against the control MilliQ sample was calculated.

E. coli ATCC 10536 = experiment: Bacterial contact time (BCT) test of perfume ingredients in 20% ethanol solution (EN-1276 based); type: cell-based, Escherichia coli; details: 20% EtOH, 45 s
Procedure: Bacterial suspensions of E. coli ATCC 10536 were prepared for antimicrobial testing as follows. Stock cultures stored at -80° C. were sub-cultured onto Tryptic Soy Agar (TSA) plate, and incubated at 37° C. for 24 h to obtain single colonies. Single colonies of the primary cultures were streaked onto TSA plates and incubated at 37° C. for 24 h to prepare the secondary cultures. Single colonies of secondary cultures were inoculated into 50 mL of Tryptic Soy broth (TSB), incubated at 37° C. 180 rpm for 18 h. Aliquots (0.5 ml) of the 18 h culture were inoculated into 50 ml of fresh TSB, and incubated at 37° C. 180 rpm for 2- 3 hours. When the OD600 nm value of the broth reached 1-2, cells were harvested by centrifugation at 5,000 rpm for 10 min, and then resuspended in the same fresh broth media to achieve the target level of 1-5 × 10^8 colony forming unit (CFU)/mL. This suspension was used for further antimicrobial tests.
Unless indicated otherwise, log reduction testing according to the present invention is determined in accordance with the following method.
Bacterial contact time (BCT) test based on European standard EN-1276 was used to determine dose dependent bactericidal activity of perfume ingredients in 20% ethanol solutions.
Perfume ingredients of various concentrations (doses) were prepared in 40% ethanol solutions. Eleven replicates of each sample were added into 96-well microtiter plates (120 µl per well) in column 1-11 of one row, with row B as the control sample of the ethanol solution. Then, 120 µl of cell suspension at a concentration of approximately 1-5 × 10^8 CFU/ML (as prepared above) were added to each well of the microtiter plate. A specified contact time (45 s) was allowed for target bacterial strains. At the end of the contact time, serial dilutions were prepared in 96 well plates with growth media: 3 times of 1 in 10 dilutions and followed by 17 times of 1 in 2 dilutions. Each plate was sealed and incubated at 37° C. under agitation (180 rpm). After incubation, turbidity of the wells (OD 600 nm) was recorded by Tecan microplate reader. Turbid cells were regarded as positive growth of viable cells. The total number of viable cells (log CFU/mL) for each sample was calculated. And the log reduction for each test composition at the final concentration (dose) was calculated against the control sample of the 20% ethanol solution.
Table 20 show the bactericidal dose related effect (log reduction) and calculated effect fraction of the Mixture C and compositions against E. coli ATCC 10536. Stock of compositions were prepared in 100% ethanol, then diluted in MilliQ water to obtain 2 × final concentration in 40% ethanol. BCT tests were conducted on samples against E. coli for a contact time of 45 s.

[2] = Equivalent alkane carbon number (EACN) in model microemulsion system; type: physicochemical; details: C10E5/water/isopropyl myristate model system, 3% wt perfume ingredient
Procedure: EACN values provide information on polarity and surface activity of apolar ingredients. Tchakalova and Fieber (J. of Surfactants and Detergents, 2012, 15(2):167-177) classified perfume ingredients based on values of EACNmix, the EACN of a mixture consisting of a test perfume ingredient and a reference oil (isopropyl myristate). The same model system and method were used to measure the EACN values of perfume ingredients with antimicrobial activities. Different perfume ingredients were added to the model microemulsion system shown in Table 1, in which the nonionic pentaethylene glycol mono n-decyl ether (C10E5) was used as surfactant. Phase transition temperatures of the system from Winsor I to Winsor III, and from Winsor III to Winsor II were determined using a water bath. Alkanes with different alkane carbon numbers (octane, decane, dodecane and hexadecane) were used to establish a linear correlation curve between EACN and the PIT, which is the average of the transitions from Winsor I to Winsor III, and from Winsor III to Winsor II, respectively. EACNmix was then calculated based on the linear relationship and the measured PIT for systems containing different perfume ingredients. The EACN of the pure perfume ingredient was calculated based on the molar ratio of the tested PRMs in the oil phase using following equation: […]
wherein n and nref are the molar fractions of tested perfume ingredient and the reference ingredient (i.e., isopropyl myristate) in the oil phase, respectively.

physchem = type: physicochemical
Procedure: The partition coefficient (P) is defined as the ratio of the concentrations (C) to the equilibrium of a dissolved and highly diluted substance in a biphasic system consisting of two almost immiscible solvents.
In the case of n-octanol and water:
The partition coefficient P is the quotient of two concentrations, it is generally indicated in its logarithmic form, base 10 (LogP).
The log P values of different perfume ingredients were measured using standard high performance liquid chromatography method, according to the reference (OECD, guideline No. 117, adopted on 13 Apr. 2004, Partition coefficient (n-octanol-water), High Performance Liquid Chromatography (HPLC) Method).

[3] = model base 1, table by functional group

| Structure (SMILES) | log reduction at 0.5 % ([1]; 0.5% perfume ingredient, Base 1: SLES 1.875%, CAPB 0.625%, contact 45 s) | log reduction at 0.5 % [1, 3] | Effect fraction (E. coli ATCC 10536; dose 0.025% w/v) | Log reduction (E. coli ATCC 10536; dose 0.025% w/v) | Effect fraction (E. coli ATCC 10536; dose 0.030% w/v) | Log reduction (E. coli ATCC 10536; dose 0.030% w/v) | Effect fraction (E. coli ATCC 10536; dose 0.035% w/v) | Log reduction (E. coli ATCC 10536; dose 0.035% w/v) | Effect fraction (E. coli ATCC 10536; dose 0.040% w/v) | Log reduction (E. coli ATCC 10536; dose 0.040% w/v) | Effect fraction (E. coli ATCC 10536; dose 0.045% w/v) | Log reduction (E. coli ATCC 10536; dose 0.045% w/v) | EACN [2] | chromatographic logP (physchem) | log reduction at 0.5 % [1] | Log reduction in Base 1 (Log CFU/mL) [1, 3] | Effect fraction (E. coli ATCC 10536; dose 0.050% w/v) | Log reduction (E. coli ATCC 10536; dose 0.050% w/v) | chromatographic logP (physchem; n-octanol/water, HPLC method, read-out: Log P) |
| --- | --- | --- | --- | --- | --- | --- | --- | --- | --- | --- | --- | --- | --- | --- | --- | --- | --- | --- | --- |
| Cc1ccc(C(C)C)c(O)c1 [2-isopropyl-5-methylphenol] | > 5.5 | > 5.5 | 0.120 | 0.887 | 0.300 | 2.140 | 0.470 | 3.344 | 0.690 | 4.987 | 0.890 | 6.387 | -43.68 | 2.57 | – | – | – | – | – |
| Cc1ccc(C(C)C)cc1O [5-isopropyl-2-methylphenol] | – | – | – | – | 0.090 | 0.660 | 0.250 | 1.812 | 0.610 | 4.379 | 0.830 | 5.960 | -43.89 | – | 5.3 | 5.3 Log CFU/mL | 0.970 | 6.960 | 2.52 |
